# Test results taken from patent US7723068B2, “Gene cluster involved in safracin biosynthesis and its uses for genetic engineering” (PharmaMar, S.A., priority 2002, dated 2010).
# Tests used:
# [1] = tested on: HELA-APL; settings: Cervix
# [2] = tested on: SK-MEL-28; experiment: cells; settings: Homo sapiens; for GI50: SK-MEL-28, read-out: GI50 SK-MEL-28; for CC50: SK-MEL-28, read-out: LC50 SK-MEL-28
# [3] = tested on: DNA synthesis; experiment: Secondary Screening, Macromolecules Synthesis DNA; assay type: cell-based; settings: Secondary Evaluation
# [4] = tested on: HT29; settings: Colon
# [5] = tested on: LOVO-DOX; settings: Colon
# [6] = tested on: A549; settings: NSCL
# [7] = tested on: IGROV; settings: Ovary
# [8] = tested on: IGROV-ET; settings: Ovary
# [9] = Antibacterial and antitumoral activities, general statements; settings: compared with safracin A / safracin B
# [10] = tested on: LOVO; experiment: cells; settings: Homo sapiens; for GI50: read-out: GI50 LOVO; for CC50: read-out: LC50 LOVO
# [11] = tested on: SK-BR3; experiment: cells; settings: Homo sapiens; for GI50: SK-BR-3, read-out: GI50 SK-BR3; for CC50: SK-BR-3, read-out: LC50 SK-BR3
# [12] = tested on: A549; experiment: cells; settings: Homo sapiens; for GI50: A549, read-out: GI50 A549; for CC50: A549, read-out: LC50 A549
# [13] = tested on: SK-MEL-28; settings: Melanoma
# [14] = tested on: HELA; experiment: cells; settings: Homo sapiens; for GI50: read-out: GI50 HELA; for CC50: read-out: LC50 HELA
# [15] = tested on: K-562; experiment: cells; settings: Homo sapiens; for GI50: K562, read-out: GI50 K-562; for CC50: K562, read-out: LC50 K-562
# [16] = tested on: Bacillus subtilis; experiment: Antimicrobial activity on solid medium, disk; assay type: cell-based; settings: 10 μg/disk (6 mm diameter)
# Protocol: Antimicrobial activity: On solid medium Bacillus subtilis. 10 μg/disk (6 mm diameter): 10 mm inhibition zone Spectroscopic Data: […]
# [17] = tested on: PANC1; settings: Pancreas
# [18] = tested on: LOVO; settings: Colon
# [19] = tested on: LOVO-DOX; experiment: cells; settings: for GI50: read-out: GI50 LOVO-DOX; for CC50: read-out: LC50 LOVO-DOX
# [20] = tested on: IGROV; experiment: cells; settings: for GI50: read-out: GI50 IGROV; for CC50: read-out: LC50 IGROV
# [21] = tested on: LN-caP; settings: Prostate
# [22] = tested on: HELA; settings: Cervix
# [23] = tested on: HELA-APL; experiment: cells; settings: for GI50: read-out: GI50 HELA-APL; for CC50: read-out: LC50 HELA-APL
# [24] = tested on: PROTEIN synthesis; experiment: Secondary Screening, Macromolecules Synthesis PROTEIN; assay type: cell-based; settings: Secondary Evaluation
# [25] = tested on: IGROV-ET; experiment: cells; settings: for GI50: read-out: GI50 IGROV-ET; for CC50: read-out: LC50 IGROV-ET
# [26] = tested on: DU-145; settings: Prostate
# [27] = tested on: LN-caP; experiment: cells; settings: Homo sapiens, LNCaP; for GI50: read-out: GI50 LN-caP; for CC50: read-out: LC50 LN-caP
# [28] = tested on: DU-145; experiment: cells; settings: Homo sapiens; for GI50: DU-145, read-out: GI50 DU-145; for CC50: DU-145, read-out: LC50 DU-145
# [29] = tested on: HT29; experiment: cells; settings: Homo sapiens; for GI50: HT-29, read-out: GI50 HT29; for CC50: HT-29, read-out: LC50 HT29
# [30] = tested on: SK-BR3; settings: Breast
# [31] = tested on: PANC1; experiment: cells; settings: Homo sapiens; for GI50: PANC-1, read-out: GI50 PANC1; for CC50: PANC-1, read-out: LC50 PANC1
# [32] = tested on: K-562; settings: Leukemia
smiles,measurement,setting,value
CCOC1=C(C)C(=O)C2=C(C1=O)C(CNC(=O)C(C)N)N1CC3Cc4cc(C)c(OCC)c(O)c4C(C1C2)N3C (stereo not drawn) [Safracin A (OEt)],TGI HELA-APL,[1],2.32 µM
same,GI50,[2],0.796 µM
same,CC50,[2],5.77 µM
same,IC50,[3],1.81 µM
same,TGI HT29,[4],4.41 µM
same,TGI LOVO-DOX,[5],9.84 µM
same,TGI A549,[6],7.17 µM
same,TGI IGROV,[7],0.928 µM
same,TGI IGROV-ET,[8],5.1 µM
same,antibacterial and antitumoral activities (in words),[9],"as potent as the activities of safracin A and safracin B, respectively"
same,GI50,[10],2.03 µM
same,CC50,[10],9.61 µM
same,GI50,[11],0.555 µM
same,CC50,[11],5.57 µM
same,GI50,[12],4 µM
same,CC50,[12],12.8 µM
same,TGI SK-MEL-28,[13],1.9 µM
same,GI50,[14],1.02 µM
same,CC50,[14],7.85 µM
same,GI50,[15],0.311 µM
same,CC50,[15],1.51 µM
same,zone of inhibition at 10 µg/disc,[16]; Bacillus subtilis,10 mm
same,TGI PANC1,[17],5.83 µM
same,TGI LOVO,[18],4.41 µM
same,GI50,[19],5.72 µM
same,CC50,[19],16.9 µM
same,GI50,[20],0.492 µM
same,CC50,[20],1.76 µM
same,TGI LN-caP,[21],0.742 µM
same,TGI HELA,[22],2.91 µM
same,GI50,[23],0.764 µM
same,CC50,[23],6.69 µM
same,IC50,[24],6.33 µM
same,GI50,[25],2.01 µM
same,CC50,[25],13 µM
same,TGI DU-145,[26],5.39 µM
same,GI50,[27],0.378 µM
same,CC50,[27],1.45 µM
same,GI50,[28],2.64 µM
same,CC50,[28],11 µM
same,GI50,[29],1.97 µM
same,CC50,[29],9.88 µM
same,TGI SK-BR3,[30],1.16 µM
same,GI50,[31],3.06 µM
same,CC50,[31],11.1 µM
same,TGI K-562,[32],0.686 µM
COc1c(C)cc2c(c1O)C1C3Cc4cc(C)c(OC)c(O)c4C(CNC(=O)C(C)N)N3CC(C2)N1C (stereo not drawn) [Safracin P-22A],TGI HELA-APL,[1],19.6 µM
same,GI50,[2],5.93 µM
same,CC50,[2],> 19.6 µM
same,TGI HT29,[4],>19.6 µM
same,TGI LOVO-DOX,[5],>19.6 µM
same,TGI A549,[6],>19.6 µM
same,TGI IGROV,[7],19.6 µM
same,TGI IGROV-ET,[8],>19.6 µM
same,antibacterial and antitumoral activities (in words),[9],appear to loose their activity
same,GI50,[10],> 19.6 µM
same,CC50,[10],> 19.6 µM
same,GI50,[11],12.7 µM
same,CC50,[11],> 19.6 µM
same,GI50,[12],> 19.6 µM
same,CC50,[12],> 19.6 µM
same,TGI SK-MEL-28,[13],13.3 µM
same,GI50,[14],8.75 µM
same,CC50,[14],> 19.6 µM
same,GI50,[15],3.15 µM
same,CC50,[15],19.6 µM
same,Antimicrobial activity: inhibition zone,[16],NO ACTIVE
same,TGI PANC1,[17],>19.6 µM
same,TGI LOVO,[18],>19.6 µM
same,GI50,[19],> 19.6 µM
same,CC50,[19],> 19.6 µM
same,GI50,[20],7.74 µM
same,CC50,[20],> 19.6 µM
same,TGI LN-caP,[21],9.26 µM
same,TGI HELA,[22],>19.6 µM
same,GI50,[23],7.66 µM
same,CC50,[23],> 19.6 µM
same,GI50,[25],13 µM
same,CC50,[25],> 19.6 µM
same,TGI DU-145,[26],>19.6 µM
same,GI50,[27],4.19 µM
same,CC50,[27],> 19.6 µM
same,GI50,[28],> 19.6 µM
same,CC50,[28],> 19.6 µM
same,GI50,[29],12.6 µM
same,CC50,[29],> 19.6 µM
same,TGI SK-BR3,[30],>19.6 µM
same,GI50,[31],> 19.6 µM
same,CC50,[31],> 19.6 µM
same,TGI K-562,[32],7.93 µM
